Converted amounts (≈) assume the structure as drawn.
Columns and labels:
[1] = water; cited from earlier work
[2] = Natural sedimentation in conical graduated tube, 15% dispersion in distilled water; sediment volume and dry solids; format: physicochemical; conditions: 15% (net w/total w) in distilled water at 20° C., 10 ml
Protocol: The water-dispersible pulverulent composition A is dispersed in distilled water at 20° C. at a concentration of 15% (net w/total w) in a conical graduated sedimentation tube (total volume of the solution is 10 ml). The quantity of the sediment (in ml) is measured along time (Table 3).
The encapsulation efficiency can also be assessed by measuring the hydration of the granules of the water-dispersible pulverulent composition of the invention. This has been evaluated by measuring the dry solid content of the sediment (% dry matter) (Table 3).

[3] = Sedimentation test (stability of the dispersion): sediment size and dry content after 24 hours; format: physicochemical; conditions: 1.5 g in 8.5 ml demineralised water, 2 min vortex; for Dry content of the sediment: sediment after 24 hours
Protocol: The stability is measured by the sedimentation test as follow: • 10 ml of solution is prepared using 8.5 ml of demineralised water and 1.5 g of the pulverulent composition A or B in special sedimentation tubes graduated from 0.1 ml up to 10 ml; • complete dispersion is assumed by a 2 min vortex mixing; • sedimentation is controlled at defined times to evaluate the amount of sediment; • quality of the dispersion is evaluated by measuring: • the dispersion of the solids all over the aqueous solution by measuring the height of the sediments of the hydrated particles. For the same amount of pulverulent composition, the higher the sediments, the more dispersed the particles in the aqueous solution • the dry content of the sediment after 24 hours.

[4] = Sedimentation of dispersed composition in water measured by turbidity (back scattering laser, Turbiscan MA 1000); format: physicochemical; conditions: 10 g in 90 ml distilled water at 20° C., bottom of tube
Protocol: 10 g of the water-dispersible pulverulent composition A is dispersed in 90 ml of distilled water at 20° C. in a tube. The sedimentation rate is measured by turbidity using a back scattering laser device (Turbiscan MA 1000) along the tube. The back light is measured along the tube at different time so that evolution of the sedimentation can be followed along time. The sedimentation is measured at the bottom of the tube.

- Sediment volume after 1 Hour dispersion ([2]; 1 hour): 0.6 mL
- Dry solids content of the sediment after 24 Hour sedimentation ([2]; 24 hours): 39.3%
- Sediment after 24 H ([3]; 24 h): 1.5 mL
- Dry content of the sediment ([3]; listed as Riboflavin (raw material)): 39.4%
- Dry content of the sediment ([3]; listed as Riboflavin (raw material) (control)): 39.4%
- Dry content of the sediment ([3]; listed as Riboflavine: Raw material (control)): 39.4%
- % Back light after 2 min dispersion ([4]; 2 min): 2%
- % Back light after 6 min dispersion ([4]; 6 min): 3.1%
SMILES: Cc1cc2nc3c(=O)[nH]c(=O)nc-3n(C[C@H](O)[C@H](O)[C@H](O)CO)c2cc1C [Riboflavin]
- solubility [1]: 70 mg/L (≈ 186 µM)
